This test deals with T1, human PAD4 (Homo sapiens, UniProt Q9UM07).
T1 construct: human PAD4 (NM_012387), A2-P663, was PCR amplified; His-SUMO (N, cleaved yes); made in house; host or cells: E. coli BL21(DE3)
Description: In vitro PAD4 BAEE biochemical assay. The settings on record: BAEE substrate 3 mM, 5 nM PAD4, 2 mM calcium chloride; geometric mean of multiple experiments. In short, it runs like this: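 Recombinant human PAD4 (5 nM final) with 2 mM CaCl2 was preincubated with compound 30 min at 25 °C in MOPS buffer pH 7.6, then reacted with 3 mM BAEE for 2 h at 25 °C. After EDTA stop, released ammonia was detected by o-phthalaldehyde/DTT fluorescence (ex 405/em 535 nm); IC50 from four-parameter fit, geometric mean.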

T1 sequence (Q9UM07 2-663): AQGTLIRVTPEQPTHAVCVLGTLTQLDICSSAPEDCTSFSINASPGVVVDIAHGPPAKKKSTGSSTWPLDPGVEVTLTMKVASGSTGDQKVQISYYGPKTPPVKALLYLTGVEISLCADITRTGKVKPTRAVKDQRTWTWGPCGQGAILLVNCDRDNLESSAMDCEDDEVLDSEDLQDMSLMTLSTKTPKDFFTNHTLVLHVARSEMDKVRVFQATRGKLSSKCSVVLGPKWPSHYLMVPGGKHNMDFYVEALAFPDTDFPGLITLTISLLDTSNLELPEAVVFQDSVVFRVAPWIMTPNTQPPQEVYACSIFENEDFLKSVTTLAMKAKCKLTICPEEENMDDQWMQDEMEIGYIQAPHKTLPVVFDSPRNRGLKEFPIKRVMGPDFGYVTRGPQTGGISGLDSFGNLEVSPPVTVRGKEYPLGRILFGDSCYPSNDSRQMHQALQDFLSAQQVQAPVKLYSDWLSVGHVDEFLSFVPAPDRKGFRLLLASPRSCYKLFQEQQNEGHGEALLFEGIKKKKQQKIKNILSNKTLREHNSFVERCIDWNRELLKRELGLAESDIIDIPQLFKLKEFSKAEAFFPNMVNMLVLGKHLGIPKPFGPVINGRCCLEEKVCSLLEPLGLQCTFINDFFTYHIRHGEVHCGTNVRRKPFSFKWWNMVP

The term IC50 denotes the concentration that inhibits the measured activity by half. On to `C[C@H]1NC(=O)[C@@H]2C[C@H]2CCCC(F)(F)Cn2c(-c3nc4cc(C(=O)N5C[C@H](N)[C@@H]6CC[C@H]5C6)cc(F)c4n3[C@@H]3C[C@@H]3F)cc3ccc1nc32` [Example 467, (2~{R},5~{R},7~{R})-14-[(1~{R})-5-[(1~{S},4~{R},5~{R})-4-amino-2-azabicyclo[3.2.1]octane-2-carbonyl]-7-fluoro-1-[(2~{S})-2-fluorocyclopropyl]benzimidazol-2-yl]-11,11-difluoro-2-methyl-3,13,19-triazatetracyclo[11.5.2.0^{5,7}.0^{16,20}] icosa-1(19),14,16(20),17-tetraen-4-one], for which the IC50 was determined as 27 nM.

`CO[C@@H]1CCN(C(=O)c2cc(F)c3c(c2)nc(-c2cc4ccc5nc4n2CCCCCc2cncc(Cl)c2C(=O)N[C@@H]5C)n3C2CC2)C[C@@H]1N` [Example 661, (2~{R})-17-[5-[(3~{S),4~ {R})-3-amino-4-methoxy-piperidine-1-carbonyl]-1-cyclopropyl-7-fluoro-benzimidazol-2-yl]-6-chloro-2-methyl-3,8,16,22-tetrazatetracyclo[14.5.2.0^ {5,10).0^{19,23}] tricosa-1(22),5,7,9,17,19(23), 20-heptaen-4-one]: the IC50 is 27 nM.

`COc1cc(C(=O)N2C[C@H](N)[C@@H]3CC[C@H]2C3)cc2nc(-c3cc4ccc5nc4n3CCCCC[C@@]3(F)C[C@]3(C)C(=O)N[C@@H]5C)n(C)c12` [Example 915, (2~{R},5~{R},7~{R})-14-[5-[(1~{S},4~{R},5~{R})-4-amino-2-azabicyclo[3.2.1]octane-2-carbonyl]-7-methoxy-1-methyl-benzimidazol-2-yl]-7-fluoro-2,5-dimethyl-3,13,19-triazatetracyclo[11.5.2.0^ {5,7}.0^{16,20}]icosa-1(19),14,16(20),17-tetraen-4-one]: the IC50 was 47 nM.

In the case of `COc1cc(C(=O)N2[C@H]3CC[C@@H]2[C@H](N)C3)cc2nc(-c3cc4ccc5nc4n3CCCCCOCC(C)(C)C(=O)N[C@@H]5C)n(C)c12` [Example 22, (12~{R})-18-[5-[(1~{R},2~{R},4~{S})-2-amino-7-azabicyclo[2.2.1]heptane-7-carbonyl]-7-methoxy-1-methyl-benzimidazol-2-yl]-9,9,12-trimethyl-7-oxa-1,11,20-triazatricyclo[11.5.2.0^{16,19}]icosa-13(20),14,16(19),17-tetraen-10-one], the IC50 was 62 nM.

On to `COCCn1c(-c2cc3ccc4nc3n2CCCCC[C@@H]2C[C@H]2C(=O)N[C@@H]4C)nc2cc(C(=O)N3CC[C@@H](OC)[C@@H](N)C3)cc(OC)c21` [Example 432, (2~{R},5~{R},7~{R})-14-[5-[(3~{S},4~{R})-3-amino-4-methoxy-piperidine-1-carbonyl]-7-methoxy-1-(2-methoxyethyl)benzimidazol-2-yl]-2-methyl-3,13,19-triazatetracyclo[11.5.2.0^{5,7}.0^{16,20}] icosa-1(19),14,16(20),17-tetraen-4-one], for which the half-inhibitory concentration (IC50) was determined as 161 nM.

`COc1cc(C(=O)N2CC[C@@H](OC)[C@@H](N)C2)cc2nc(-c3cc4ccc5nc4n3CCCCCCC(C)(C)C(=O)N[C@@H]5C)n(C)c12` [Example 60, (11~{R})-17-[5-[(3~{S},4~{R})-3-amino-4-methoxy-piperidine-1-carbonyl]-7-methoxy-1-methyl-benzimidazol-2-yl]-8,8,11-trimethyl-1,10,19-triazatricyclo[10.5.2.0^{15,18}]nonadeca-12(19),13,15(18),16-tetraen-9-one]: the half-maximal inhibitory concentration (IC50) is 118 nM.

On to `COc1cc(C(=O)N2[C@@H]3CC[C@@H](N)[C@H]2CC3)cc2nc(-c3cc4ccc5nc4n3CC(F)(F)CCC[C@@H]3C[C@H]3C(=O)N[C@@H]5C)n(C)c12` [Example 752, (2~{R},5~{R},7~{R})-14-[5-[(1~{R},2~{R},5~{R})-2-amino-8-azabicyclo[3.2.1]octane-8-carbonyl]-7-methoxy-1-methyl-benzimidazol-2-yl]-11,11-difluoro-2-methyl-3,13,19-triazatetracyclo[11.5.2.0^ {5,7}.0^{16,20}]icosa-1(19),14,16(20),17-tetraen-4-one], for which the IC50 turned out to be 30 nM.

As for `COc1cc(C(=O)N2C[C@H](N)[C@@H]3CC[C@H]2C3)cc2nc(-c3cc4ccc5nc4n3CCCCCc3c(F)ccc(F)c3C(=O)N[C@@H]5C)n(C)c12` [Example 903, (2~{R})-17-[5-[(1~{S},4~{R}, 5~{R})-4-amino-2-azabicyclo [3.2.1]octane-2-carbonyl]-7-methoxy-1-methyl-benzimidazol-2-yl]-6,9-difluoro-2-methyl-3,16,22-triazatetracyclo [14.5.2.0^{5,10}.0^{19,23}] tricosa-1(22),5(10),6,8,17, 19(23),20-heptaen-4-one], the IC50 turned out to be 55 nM.

`COc1cc(C(=O)N2CC[C@@H](OC)[C@@H](N)C2)cc2nc(-c3cc4ccc5nc4n3CC(F)(F)CCCCC(C)(C)C(=O)N[C@@H]5C)n(C)c12` [Example 608, (11~{R})-17-[5-[(3~{S}, 4~{R})-3-amino-4-methoxy-piperidine-1-carbonyl]-7-methoxy-1-methyl-benzimidazol-2-yl]-3,3-difluoro-8,8,11-trimethyl-1,10,19-triazatricyclo[10.5.2.0^ {15,18}]nonadeca-12,14,16,18-tetraen-9-one]: the IC50 was determined as 115 nM.

On to `C[C@H]1NC(=O)[C@@H]2[C@@H](CCCCCn3c(-c4nc5cc(C(=O)N[C@H]6CNCC[C@@H]6F)c(F)cc5n4C4CC4)cc4ccc1nc43)C2(F)F` [Example 393, 1-cyclopropyl-2-[(2~{R},5~{S},7~{R})-6,6-difluoro-2-methyl-4-oxo-3,13,19-triazatetracyclo[11.5.2.0^{5,7}.0^{16,20}]icosa-1(19),14,16(20),17-tetraen-14-yl]-6-fluoro-~{N}-[(3~{S},4~{S})-4-fluoro-3-piperidyl]benzimidazole-5-carboxamide], for which the IC50 was 63 nM.

As to `COc1cc(C(=O)N[C@H]2CNCC[C@@H]2F)cc2nc(-c3cc4ccc5nc4n3Cc3ccccc3CCCCC(=O)N[C@@H]5C)n(C)c12` [Example 590, ~{N}-[(3~{S},4~{S})-4-fluoro-3-piperidyl]-7-methoxy-1-methyl-2-[(15~{R})-15-methyl-13-oxo-1,14,23-triazatetracyclo[14.5.2.0^ {3,8}.0^{19,22}]tricosa-3(8),4,6,16,18,20,22-heptaen-21-yl] benzimidazole-5-carboxamide], the IC50 came to 683 nM.

As to `C[C@H]1NC(=O)[C@@H]2C[C@@H]2C/C=C\CCn2c(-c3nc4cc(C(=O)N[C@H]5CNCC[C@@H]5F)c(F)cc4n3C3CC3)cc3ccc1nc32` [Example 519, 1-cyclopropyl-6-fluoro-~{N}-[(3~{S},4~{S})-4-fluoro-3-piperidyl]-2-[(2~{R}, 5~{R},7~{S},9~{Z})-2-methyl-4-oxo-3,13,19-triazatetracyclo[11.5.2.0^ {5,7}.0^{16,20}]icosa-1 (19),9,14,16(20),17-pentaen-14-yl]benzimidazole-5-carboxamide], the IC50 came to 44 nM.

Turning to `COc1cc(C(=O)N2CC[C@@H](OC)[C@@H](N)C2)cc2nc(-c3cc4ccc5nc4n3CCCCCC[C@](C)(c3ccccn3)C(=O)N[C@@H]5C)n(C)c12` [Example 861, (8~{R},11~{R})-17-[5-[(3~ {S},4~{R})-3-amino-4-methoxy-piperidine-1-carbonyl]-7-methoxy-1-methyl-benzimidazol-2-yl]-8,11-dimethyl-8-(2-pyridyl)-1,10,19-triazatricyclo[10.5.2.0^{15,18}] nonadeca-12(19),13,15(18), 16-tetraen-9-one], the IC50 worked out at 39 nM.

Consider `COc1cc(C(=O)N2CC[C@@H](OC)[C@@H](N)C2)cc2nc(-c3cc4ccc5nc4n3CCCCCc3cccc(C)c3C(=O)N[C@@H]5C)n(C)c12` [Example 362, (2~{R})-17-[5-[(3~{S},4~{R})-3-amino-4-methoxy-piperidine-1-carbonyl]-7-methoxy-1-methyl-benzimidazol-2-yl]-2,6-dimethyl-3,16,22-triazatetracyclo[14.5.2.0^{5,10}.0^{19,23}] tricosa-1(22),5(10),6,8,17,19(23),20-heptaen-4-one], for which the IC50 came out at 137 nM.

As to `COc1cc(C(=O)N2CCC[C@@H](N)C2)cc2nc(-c3cc4ccc5nc4n3CCCCCCC(C)(C)C(=O)N[C@@H]5C)n(C3CC3)c12` [Example 230, (11~{R})-17-[5-[(3~{R})-3-aminopiperidine-1-carbonyl]-1-cyclopropyl-7-methoxy-benzimidazol-2-yl]-8,8,11-trimethyl-1,10,19-triazatricyclo[10.5.2.0^{15,18}]nonadeca-12(19),13,15(18),16-tetraen-9-one], the IC50 worked out at 84 nM.

In the case of `COc1cc(C(=O)N2CCC[C@@H](N)C2)cc2nc(-c3cc4ccc5nc4n3C[C@@H]3C[C@H]3CO[C@@H](C)CC(=O)N[C@@H]5C)n(C)c12` [Example 267, (5~{R},8~{S},12~{R})-18-[5-[(3~{R})-3-aminopiperidine-1-carbonyl]-7-methoxy-1-methyl-benzimidazol-2-yl]-8,12-dimethyl-7-oxa-1,11,20-triazatetracyclo[11.5.2.0^{3,5}.0^{16,19}] icosa-13(20),14,16(19),17-tetraen-10-one], the half-maximal inhibitory concentration (IC50) stood at 88 nM.

As to `CO[C@@H]1CCN(C(=O)c2cc(F)c3c(c2)nc(-c2cc4ccc5nc4n2CCCCCc2nc4ccccc4cc2C(=O)N[C@@H]5C)n3C2CC2)C[C@@H]1N` [Example 829, (2~{R})-21-[5-[(3~{S},4~ {R})-3-amino-4-methoxy-piperidine-1-carbonyl]-1-cyclopropyl-7-fluoro-benzimidazol-2-yl]-2-methyl-3,13,20,26-tetrazapentacyclo [18.5.2.0^{5,14}.0^{7,1 2}.0^{23,27}]heptacosa-1(26),5(14),6,8,10,12,21,23(27), 24-nonaen-4-one], the IC50 worked out at 15 nM.

Source of the values: US11976083B2, “Inhibitors of peptidylarginine deiminases” (Gilead Sciences, Inc., priority 2020, dated 2024).
